{"source": "PubChem BioAssay AID743394", "about": "(Broad Institute, 2014)", "note": "Calls of active or inactive are those of the source.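 The calls were made as follows: active = 40% activation versus positive control reached by fitted dose-response curve at or below highest valid tested dose; inconclusive = poor fit quality, or flat fit with activation between 30% and 70%; inactive = the rest.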", "data": [{"experiment": "Xi-linked GFP reactivating small molecules – imaging, 68-5-11 mouse fibroblasts, cherry-pick, dose response (AID 743394);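 also: sensitizer 5-aza-dC present in the wells at 0.5 mM final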", "settings": "68-5-11 mouse fibroblast XiGFP reporter, % GFP-positive imaging, 3 d; at 19.5 µM (top of the series); cells co-treated with 5-aza-dC sensitizer; scaled: neutral wells 0, ellipticine wells 100", "values": [{"smiles": "O=[N+]([O-])c1ccc(Sc2nnnn2-c2ccccc2)nc1", "activation": "-0.121% (inactive)"}, {"smiles": "CC1CC(C)CN(C(=O)CSCC(=O)Nc2nc(-c3cccs3)cs2)C1", "note": "(stereo unspecified)", "activation": "-0.047% (inactive)"}, {"smiles": "CCOC(=O)C1CCN(c2c(NCc3ccc(C(=O)NC4CCCC4)cc3)c(=O)c2=O)CC1", "activation": "-0.034% (inactive)"}, {"smiles": "O=C(O)c1ccccc1C1Nc2ccccc2C(=O)N1CCCN1CCOCC1", "note": "(stereo unspecified)", "activation": "0.018% (inactive)"}, {"smiles": "Cc1ccc(NCc2nnc(SCC(=O)NNC(=O)Cc3ccccc3)n2C)cc1", "activation": "0.012% (inactive)"}, {"smiles": "Nc1nc(C2CCOCC2)cs1", "activation": "-0.032% (inactive)"}, {"smiles": "CC1CC(C)CN(C(=O)C(C)N2CCN(S(=O)(=O)c3ccccc3F)CC2)C1", "note": "(stereo unspecified)", "activation": "0.412% (inactive)"}, {"smiles": "O=C(CCl)N=c1sccn1Cc1cccc2ccccc12", "activation": "-0.053% (inactive)"}, {"smiles": "COc1ccccc1N(C)c1cc2c(c3c1ccn3C)C1CCC2C1", "note": "(stereo unspecified)", "activation": "0.146% (inactive)"}, {"smiles": "COc1ccccc1N=Nc1c(C)[nH]n(-c2ccccc2)c1=O", "activation": "-0.075% (inactive)"}, {"smiles": "COc1ccc2c(c1)c(/C=N/Nc1nc3ccccc3[nH]1)c(C)n2C", "activation": "5.21% (inactive)"}, {"smiles": "COc1ccc2c3c([nH]c2c1)[C@H](CO)N(C(=O)C1CCCC1)CC31CN(Cc2nccs2)C1", "activation": "-0.007% (inactive)"}, {"smiles": "CC(=O)Nc1ccc(N2Cc3ccccc3C2)cc1", "activation": "-0.053% (inactive)"}, {"smiles": "CN1OC[C@@H]2CN(Cc3ccccc3)[C@H](c3cccc(N4CCOCC4)c3)C[C@@H]21", "activation": "0.022% (inactive)"}, {"smiles": "CN(C)c1ccc(NC2=C(Cl)C(=O)c3ccccc3C2=O)cc1", "activation": "-0.053% (inactive)"}, {"smiles": "CC(=O)Oc1ccc2c(=O)c(-c3ccccc3)coc2c1", "activation": "0.086% (inactive)"}, {"smiles": "COc1ccc(S(=O)(=O)Nc2ccc3c(c2)C(=O)N([C@@H](C)CO)C[C@H](C)[C@H](CN(C)C(=O)CCCN(C)C)OCCCC[C@H](C)O3)cc1", "activation": "0.053% (inactive)"}, {"smiles": "COc1ccc2c3c([nH]c2c1)[C@H](CO)N(C(=O)c1cccnc1)CC31CCN(Cc2ccccc2)CC1", "activation": "0.094% (inactive)"}, {"smiles": "Cc1ccc(N2C(=O)C3C4C=CC(CNC(=S)N5CCN(c6ccccc6)CC5)(O4)C3C2=O)cc1", "note": "(stereo unspecified)", "activation": "-0.008% (inactive)"}, {"smiles": "COc1ccc2c3c(n(C)c2c1)[C@@H](CO)N(C)CC31CN(C(=O)NC(C)C)C1", "activation": "-0.012% (inactive)"}, {"smiles": "CSc1ccc(CN2C(=O)NC3(CCCCCCC3)C2=O)cc1", "activation": "0.616% (inactive)"}, {"smiles": "Cc1ccc(S(=O)(=O)N(C)C[C@H]2OCCCC[C@@H](C)Oc3ccc(NC(=O)Nc4c(C)noc4C)cc3C(=O)N([C@H](C)CO)C[C@@H]2C)cc1", "activation": "-0.011% (inactive)"}, {"smiles": "CCOC(=O)CSc1nnc(CCCCCN2C(=O)c3cccc4cccc(c34)C2=O)o1", "activation": "0.013% (inactive)"}, {"smiles": "C[C@H]1CN([C@@H](C)CO)C(=O)c2cc(NC(=O)CCCCCC(=O)Nc3ccccc3N)ccc2O[C@H]1CN(C)C(=O)Nc1ccccc1", "activation": "0.04% (inactive)"}, {"smiles": "Cc1cc(NC(=O)c2ccccc2)n(-c2nc3ccccc3[nH]2)n1", "activation": "-0.016% (inactive)"}, {"smiles": "CCOC(=O)c1c(C)[nH]c(N=Nc2ccc(OC)cc2)c1C", "activation": "1.01% (inactive)"}, {"smiles": "C(CCCN1CCCCC1)CCN1CCCCC1", "activation": "0.047% (inactive)"}, {"smiles": "CCN(CC)CCCNC1=C(Cl)C(=O)c2ccccc2C1=O", "activation": "-0.032% (inactive)"}, {"smiles": "COc1cccc2cc(C(=O)N(Cc3cccs3)CC3CCCO3)c(=O)oc12", "note": "(stereo unspecified)", "activation": "-0.044% (inactive)"}, {"smiles": "CN(C)C(=O)C[C@@H]1C=C[C@H](NS(=O)(=O)c2ccccc2)[C@@H](CO)O1", "activation": "0.689% (inactive)"}, {"smiles": "CC[C@]12c3[nH]c4cc(CCC(=O)N(C)C)ccc4c3CCN1C(=O)[C@@H](CC(=O)NCCC1=CCCCC1)C[C@@H]2C(=O)N1CCN(C(=O)c2ccco2)CC1", "activation": "0.011% (inactive)"}, {"smiles": "COc1cc(/C=C/c2ccc3cccc(O)c3n2)ccc1O", "activation": "3.08% (inactive)"}, {"smiles": "CCOc1ccc(C(=O)c2cc([N+](=O)[O-])ccc2N2CCOCC2)cc1", "activation": "0.569% (inactive)"}, {"smiles": "Cc1ccccc1NC(=O)CN1C(=O)S/C(=C\\c2ccc(-c3cc(C(=O)O)ccc3C)o2)C1=O", "activation": "0.024% (inactive)"}, {"smiles": "Cc1ccnc(NS(=O)(=O)c2ccc3c(c2)CCO3)c1", "activation": "0.025% (inactive)"}, {"smiles": "C=Cc1cnc([N+](=O)[O-])n1C", "activation": "-0.018% (inactive)"}, {"smiles": "Oc1cccc(/C=N/NC(=S)NCCN2CCOCC2)c1O", "activation": "-0.016% (inactive)"}, {"smiles": "CCOC(=O)C1=c2/c(=C/c3ccncc3)c(N)c(C(=O)OC)n2C(=O)C(c2ccncc2)S1", "note": "(stereo unspecified)", "activation": "0.188% (inactive)"}, {"smiles": "O=c1c(Cl)c(Cl)cnn1Cc1nnc(-c2ccccc2Br)o1", "activation": "-0.053% (inactive)"}, {"smiles": "CC(Sc1nnc(Cc2ccccc2)o1)C(=O)Nc1ccccc1[N+](=O)[O-]", "note": "(stereo unspecified)", "activation": "-0.032% (inactive)"}, {"smiles": "CC(=O)N/C(N)=N/c1nc(=O)c2ccccc2s1", "activation": "-0.044% (inactive)"}, {"smiles": "COCCCn1c(C)cc(C(=O)COC(=O)CCc2nc3ccccc3c(=O)[nH]2)c1C", "activation": "0.39% (inactive)"}, {"smiles": "CN(C)CCCNC(=O)/C(=C\\c1ccc(-c2ccc(Br)cc2)o1)NC(=O)c1ccccc1", "activation": "-0.053% (inactive)"}, {"smiles": "CO[C@H]1CN(C)C(=O)c2ccc(NC(=O)Cc3ccccc3)cc2OC[C@@H](C)N(C)C[C@H]1C", "activation": "-0.035% (inactive)"}, {"smiles": "COc1ccc2c3c([nH]c2c1)[C@H](CO)N(C(=O)Nc1ccc(F)cc1)CC31CN(CC2CC2)C1", "activation": "-0.035% (inactive)"}, {"smiles": "CCc1ccc(NS(=O)(=O)c2ccc3[nH]cc(C(=O)N4CCc5ccccc54)c(=O)c3c2)cc1", "activation": "-0.01% (inactive)"}, {"smiles": "CCCN(C)C[C@@H]1OCc2cnnn2CCCC(=O)N([C@H](C)CO)C[C@H]1C", "activation": "1.19% (inactive)"}, {"smiles": "Cc1cc(NC(=O)CSc2nnc(-c3c[nH]c4ccccc34)n2-c2ccc(F)cc2)no1", "activation": "0.139% (inactive)"}, {"smiles": "C[C@H]1CCCCO[C@@H](CN(C)C(=O)Nc2ccc(C(F)(F)F)cc2)[C@@H](C)CN([C@@H](C)CO)C(=O)c2cc(NC(=O)CCC(F)(F)F)ccc2O1", "activation": "0.048% (inactive)"}, {"smiles": "O=C(Nc1cccc(C(=O)O)c1)/C(=C\\c1ccccc1)NC(=O)c1ccc(Br)o1", "activation": "0.02% (inactive)"}, {"smiles": "O=C(N/N=C/c1ccc(O)c2ncccc12)c1cccc(Br)c1", "activation": "-0.037% (inactive)"}, {"smiles": "O=C(c1ccccc1Cl)N1CCSCCS1(=O)=O", "activation": "0.035% (inactive)"}, {"smiles": "COc1ccc(CNC(=O)c2ccc(-c3cnn(C)c3)c3ccoc23)cc1OC", "activation": "-0.037% (inactive)"}, {"smiles": "CCCCC(CCC(=O)Nc1ccn(-c2ccccc2)n1)C(=O)O", "note": "(stereo unspecified)", "activation": "0% (inactive)"}, {"smiles": "COc1ccc(CCNC(=O)c2ccc([N+](=O)[O-])cc2)cc1", "activation": "-0.024% (inactive)"}, {"smiles": "COc1ccc2c(c1)C(C)=CC(C)(C)N2S(=O)(=O)c1ccc(Br)cc1", "activation": "0.373% (inactive)"}, {"smiles": "CCCn1c(SCC(=O)NCc2ccc(C)cc2)n[nH]c1=O", "activation": "-0.121% (inactive)"}, {"smiles": "Cc1ccc(-c2nc(CS(=O)CC(=O)NCCCN3CC(C)CC(C)C3)c(C)o2)cc1", "note": "(stereo unspecified)", "activation": "0.4% (inactive)"}, {"smiles": "Cc1cccn2c(=O)c3cc(C(=O)NCc4ccc(F)cc4)c(=N)n(CCCN4CCOCC4)c3nc12", "activation": "0.061% (inactive)"}, {"smiles": "Cc1ccc(NC(=O)c2ncn(CCCNCCCN(C)C)n2)cc1C", "activation": "0.041% (inactive)"}, {"smiles": "O=C(O)c1ccccc1NS(=O)(=O)c1ccc(N/N=C/c2cccc(O)c2O)c([N+](=O)[O-])c1", "activation": "-0.035% (inactive)"}, {"smiles": "CC1=C(Cl)C2=NS(=O)(=O)CCN2C=C1Cl", "activation": "0.137% (inactive)"}, {"smiles": "CO[C@@H]1CN(C)C(=O)c2cc(NS(C)(=O)=O)ccc2OC[C@H](C)N(C(=O)C2CCCC2)C[C@H]1C", "activation": "0.988% (inactive)"}, {"smiles": "O=C(CCn1nc(-c2ccc(Cl)cc2)c2ccccc2c1=O)NN1CCOCC1", "activation": "-0.017% (inactive)"}, {"smiles": "C[C@H](NC(=O)C[C@H]1CC[C@@H](NC(=O)Cc2ccccn2)[C@@H](CO)O1)c1ccccc1", "activation": "0.043% (inactive)"}, {"smiles": "OC[C@@H]1Nc2ccc(C#Cc3ccccc3)cc2[C@H]2[C@@H]1CCN2Cc1nccs1", "activation": "0.161% (inactive)"}, {"smiles": "CC(C)(C=O)C1=CC(=O)c2ccccc2C1=O", "activation": "-0.07% (inactive)"}, {"smiles": "Cc1ccc(S(=O)(=O)Nc2cccc3c2O[C@H](CN(C)C(=O)Nc2cccc4ccccc24)[C@H](C)CN([C@H](C)CO)C3=O)cc1", "activation": "0.028% (inactive)"}, {"smiles": "Cc1[nH]c2ccc(Br)cc2c(=O)c1CN1CCCCCC1", "activation": "-0.013% (inactive)"}, {"smiles": "O=C(Nc1ccc(F)cc1)N1CC(=O)N2[C@H](CO)[C@H](c3ccc(C#Cc4ccc(F)cc4)cc3)[C@@H]2C1", "activation": "-0.031% (inactive)"}, {"smiles": "COc1cccc(CNC(=O)C(Cc2ccccc2)n2cccc2)c1", "note": "(stereo unspecified)", "activation": "0.002% (inactive)"}, {"smiles": "Cn1c(=O)[nH]c(=O)c2c1nc(SCCN1CCOCC1)n2CCCc1ccccc1", "activation": "-0.047% (inactive)"}, {"smiles": "COc1ccc2c3c([nH]c2c1)[C@@H](CO)N(Cc1ccccc1F)CC31CN(C(=O)C2CCOCC2)C1", "activation": "0.046% (inactive)"}, {"smiles": "C[C@@H]1CN([C@H](C)CO)C(=O)c2cc(NS(=O)(=O)c3ccccc3)ccc2O[C@@H](C)CCCCO[C@@H]1CN(C)Cc1ccc2c(c1)OCO2", "activation": "0% (inactive)"}, {"smiles": "COc1ccc(OC)c(NC(=O)Nc2ccc3[nH]ccc3c2)c1", "activation": "-0.035% (inactive)"}, {"smiles": "Oc1cc2c(c(Cl)c1O)CCNCC2c1ccccc1", "note": "(stereo unspecified)", "activation": "-0.008% (inactive)"}, {"smiles": "COc1ccc(C(=O)CN2Cc3ccccc3C2=N)cc1", "activation": "0.166% (inactive)"}, {"smiles": "COC(=O)Nc1ccc(S(=O)(=O)N2CCCC(C(=O)N3CCN(C)CC3)C2)cc1", "note": "(stereo unspecified)", "activation": "0.221% (inactive)"}, {"smiles": "CC(C)C(NC(=O)c1ccc(F)cc1)C(=O)NCC1CCCO1", "note": "(stereo unspecified)", "activation": "0.21% (inactive)"}, {"smiles": "O=C(NC1=NN(c2ccccc2)CC1)Nc1ccccc1F", "activation": "-0.003% (inactive)"}, {"smiles": "O=C1N(c2ccccc2)C[C@@H]2C[C@@H](c3cc4ccccc4o3)N3CCC[C@@]123", "activation": "-0.008% (inactive)"}, {"smiles": "COC(=O)c1c(NC(=O)c2ccc(C)cc2)csc1C", "activation": "0.018% (inactive)"}, {"smiles": "Cc1ccc(Cn2cc(/C=N/Nc3ccc([N+](=O)[O-])cn3)c3ccccc32)cc1", "activation": "1.53% (inactive)"}, {"smiles": "COc1cccc(C(=O)c2c(-c3ccccc3)ncc3cc(OC)c(OC)cc23)c1", "activation": "0.006% (inactive)"}, {"smiles": "COc1ccc(CN(C)C[C@H]2OCCCC[C@H](C)Oc3ccc(NC(=O)Nc4ccc(F)cc4)cc3C(=O)N([C@H](C)CO)C[C@H]2C)cc1", "activation": "0.981% (inactive)"}, {"smiles": "CCc1ccccc1OCC(=O)Nc1ccc(N2CCCC2)cc1C", "activation": "0.109% (inactive)"}]}]}
